Laboratory results published in patent publication US10597388B2, “Pyridazinone herbicides” (FMC CORPORATION, priority 2014, dated 2020).

Columns and labels:
Assay in all cases: Test C greenhouse herbicide test, pre- and postemergence
Assay type in all cases: in vivo
[1] = system: crabgrass, large (large crabgrass, Digitaria sanguinalis)
Outline: (§1)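 Each species was treated both before emergence, in a loam–sand soil mix, and after emergence, as 1- to 4-leaf seedlings in peat-based potting medium. Plants stayed in the greenhouse 13 to 15 d, then were scored from 0 (no effect) to 100 (complete control) relative to controls.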

[2] = system: galium (catchweed bedstraw, Galium aparine)
Outline: as §1

[3] = system: lambsquarters (Chenopodium album)
Outline: as §1

[4] = system: blackgrass (Alopecurus myosuroides)
Outline: as §1

[5] = system: velvetleaf (Abutilon theophrasti)
Outline: as §1

[6] = system: oilseed rape (Brassica napus)
Outline: as §1

[7] = system: corn (Zea mays)
Outline: as §1

[8] = system: wheat (winter wheat, Triticum aestivum)
Outline: as §1

[9] = system: ryegrass, Italian (Italian ryegrass, Lolium multiflorum)
Outline: as §1

[10] = system: barnyardgrass (Echinochloa crus-galli)
Outline: as §1

[11] = system: ragweed (common ragweed, Ambrosia elatior)
Outline: as §1

[12] = system: pigweed (Amaranthus retroflexus)
Outline: as §1

[13] = system: waterhemp (common waterhemp, Amaranthus rudis)
Outline: as §1

[14] = system: morningglory (Ipomoea coccinea)
Outline: as §1

[15] = system: foxtail, giant (giant foxtail, Setaria faberii)
Outline: as §1

[16] = Postemergence, 31 g ai/ha, 0 to 100 scale (0 no effect, 100 complete control)
[17] = Postemergence, 125 g ai/ha, scale 0 to 100, 0 is no effect, 100 is complete control
[18] = Postemergence, 250 g ai/ha, scale 0 to 100, 0 no effect, 100 complete control, 13 to 15 d
[19] = Preemergence, 31 g ai/ha, scale 0 to 100, 0 is no effect, 100 is complete control
[20] = Preemergence, 62 g ai/ha, scale 0 to 100, 0 is no effect, 100 is complete control
[21] = Preemergence, 125 g ai/ha, scale 0 to 100, 0 is no effect, 100 is complete control
[22] = Preemergence, 250 g ai/ha, scale 0 to 100, 0 no effect, 100 complete control
[23] = postemergence, 62 g ai/ha, scale 0 to 100, 0 no effect, 100 complete control

`Cc1cc(C)c2sc(C)c(-c3c(O)c(C)nn(C)c3=O)c2c1` [Compound 2, 5-hydroxy-2,6-dimethyl-4-(2,5,7-trimethylbenzo[b]thien-3-yl)-3(2H)-pyridazinone] was tested, and the “Crabgrass, Large plant response rating” value [1, 16] was 10, the “Plant response rating, Crabgrass, Large” value [1, 17] was 15 and the “Plant response rating, Crabgrass, Large” value [1, 18] was 10. The “Plant response rating, Crabgrass, Large” value [1, 19] was 55, the “Plant response rating, Crabgrass, Large” value [1, 20] was 55 and the “Plant response rating, Crabgrass, Large” value [1, 21] was 98. The “Crabgrass, Large plant response rating” value [1, 22] was 95, the “Crabgrass, Large plant response rating” value [1, 23] was 15 and the “Galium plant response rating” value [2, 16] was 95. For the same molecule, the “Plant response rating, Galium” value [2, 17] was 98, the “Plant response rating, Galium” value [2, 18] was 98 and the “Plant response rating, Galium” value [2, 19] was 95. For the same molecule, the “Plant response rating, Galium” value [2, 20] was 100, the “Plant response rating, Galium” value [2, 21] was 100 and the “Galium plant response rating” value [2, 22] was 100. For the same molecule, the “Galium plant response rating” value [2, 23] was 95, the “Lambsquarters plant response rating” value [3, 16] was 85 and the “Plant response rating, Lambsquarters” value [3, 17] was 98. For the same molecule, the “Plant response rating, Lambsquarters” value [3, 18] was 100, the “Plant response rating, Lambsquarters” value [3, 19] was 100 and the “Plant response rating, Lambsquarters” value [3, 20] was 100. The “Plant response rating, Lambsquarters” value [3, 21] was 100, the “Lambsquarters plant response rating” value [3, 22] was 100 and the “Lambsquarters plant response rating” value [3, 23] was 85. For the same molecule, the “Blackgrass plant response rating” value [4, 16] was 45, the “Plant response rating, Blackgrass” value [4, 17] was 85 and the “Plant response rating, Blackgrass” value [4, 18] was 80. The “Plant response rating, Blackgrass” value [4, 19] was 85, the “Plant response rating, Blackgrass” value [4, 20] was 90 and the “Plant response rating, Blackgrass” value [4, 21] was 95. The “Blackgrass plant response rating” value [4, 22] was 95, the “Blackgrass plant response rating” value [4, 23] was 65 and the “Velvetleaf plant response rating” value [5, 16] was 100. For the same molecule, the “Plant response rating, Velvetleaf” value [5, 17] was 100, the “Plant response rating, Velvetleaf” value [5, 18] was 100 and the “Plant response rating, Velvetleaf” value [5, 20] was 95. The “Plant response rating, Velvetleaf” value [5, 21] was 100, the “Velvetleaf plant response rating” value [5, 22] was 100 and the “Velvetleaf plant response rating” value [5, 23] was 100. The “Oilseed Rape plant response rating” value [6, 16] was 65, the “Plant response rating, Oilseed Rape” value [6, 17] was 70 and the “Plant response rating, Oilseed Rape” value [6, 18] was 75. The “Plant response rating, Oilseed Rape” value [6, 19] was 0, the “Plant response rating, Oilseed Rape” value [6, 20] was 20 and the “Plant response rating, Oilseed Rape” value [6, 21] was 65. For the same molecule, the “Oilseed Rape plant response rating” value [6, 22] was 65, the “Oilseed Rape plant response rating” value [6, 23] was 70 and the “Corn plant response rating” value [7, 16] was 0. The “Plant response rating, Corn” value [7, 17] was 5, the “Plant response rating, Corn” value [7, 18] was 10 and the “Plant response rating, Corn” value [7, 19] was 0. For the same molecule, the “Plant response rating, Corn” value [7, 20] was 0, the “Plant response rating, Corn” value [7, 21] was 0 and the “Corn plant response rating” value [7, 22] was 10. The “Corn plant response rating” value [7, 23] was 5, the “Wheat plant response rating” value [8, 16] was 0 and the “Plant response rating, Wheat” value [8, 17] was 5. The “Plant response rating, Wheat” value [8, 18] was 5, the “Plant response rating, Wheat” value [8, 20] was 0 and the “Plant response rating, Wheat” value [8, 21] was 0. For the same molecule, the “Wheat plant response rating” value [8, 22] was 10, the “Wheat plant response rating” value [8, 23] was 0 and the “Ryegrass, Italian plant response rating” value [9, 16] was 60. For the same molecule, the “Plant response rating, Ryegrass, Italian” value [9, 17] was 85, the “Plant response rating, Ryegrass, Italian” value [9, 18] was 90 and the “Plant response rating, Ryegrass, Italian” value [9, 19] was 95. For the same molecule, the “Plant response rating, Ryegrass, Italian” value [9, 20] was 98, the “Plant response rating, Ryegrass, Italian” value [9, 21] was 98 and the “Ryegrass, Italian plant response rating” value [9, 22] was 98. For the same molecule, the “Ryegrass, Italian plant response rating” value [9, 23] was 75, the “Barnyardgrass plant response rating” value [10, 16] was 10 and the “Plant response rating, Barnyardgrass” value [10, 17] was 15. For the same molecule, the “Plant response rating, Barnyardgrass” value [10, 18] was 20, the “Plant response rating, Barnyardgrass” value [10, 19] was 35 and the “Plant response rating, Barnyardgrass” value [10, 20] was 70. For the same molecule, the “Plant response rating, Barnyardgrass” value [10, 21] was 95, the “Barnyardgrass plant response rating” value [10, 22] was 98 and the “Barnyardgrass plant response rating” value [10, 23] was 10. For the same molecule, the “Ragweed plant response rating” value [11, 16] was 80, the “Plant response rating, Ragweed” value [11, 17] was 95 and the “Plant response rating, Ragweed” value [11, 18] was 98. For the same molecule, the “Plant response rating, Ragweed” value [11, 19] was 65, the “Plant response rating, Ragweed” value [11, 20] was 100 and the “Plant response rating, Ragweed” value [11, 21] was 100. The “Ragweed plant response rating” value [11, 22] was 98, the “Ragweed plant response rating” value [11, 23] was 80 and the “Pigweed plant response rating” value [12, 16] was 80. The “Plant response rating, Pigweed” value [12, 17] was 90, the “Plant response rating, Pigweed” value [12, 18] was 98 and the “Plant response rating, Pigweed” value [12, 19] was 100. For the same molecule, the “Plant response rating, Pigweed” value [12, 20] was 100, the “Plant response rating, Pigweed” value [12, 21] was 100 and the “Pigweed plant response rating” value [12, 22] was 100. For the same molecule, the “Pigweed plant response rating” value [12, 23] was 60, the “Waterhemp plant response rating” value [13, 16] was 65 and the “Plant response rating, Waterhemp” value [13, 17] was 85. The “Plant response rating, Waterhemp” value [13, 18] was 100, the “Plant response rating, Waterhemp” value [13, 20] was 100 and the “Plant response rating, Waterhemp” value [13, 21] was 100. For the same molecule, the “Waterhemp plant response rating” value [13, 22] was 100, the “Waterhemp plant response rating” value [13, 23] was 65 and the “Morningglory plant response rating” value [14, 16] was 100. For the same molecule, the “Plant response rating, Morningglory” value [14, 17] was 100, the “Plant response rating, Morningglory” value [14, 18] was 100 and the “Plant response rating, Morningglory” value [14, 19] was 98. The “Plant response rating, Morningglory” value [14, 20] was 100, the “Plant response rating, Morningglory” value [14, 21] was 98 and the “Morningglory plant response rating” value [14, 22] was 100. For the same molecule, the “Morningglory plant response rating” value [14, 23] was 100, the “Foxtail, Giant plant response rating” value [15, 16] was 20 and the “Plant response rating, Foxtail, Giant” value [15, 17] was 90. The “Plant response rating, Foxtail, Giant” value [15, 18] was 95, the “Plant response rating, Foxtail, Giant” value [15, 19] was 80 and the “Plant response rating, Foxtail, Giant” value [15, 20] was 100. The “Plant response rating, Foxtail, Giant” value [15, 21] was 98, the “Foxtail, Giant plant response rating” value [15, 22] was 100 and the “Foxtail, Giant plant response rating” value [15, 23] was 65.
For `CC(=O)Oc1c(Cl)nn(C)c(=O)c1-c1c(C)sc2ccc(Cl)cc12` [Compound 116], the “Plant response rating, Crabgrass, Large” value [1, 19] was 0, the “Plant response rating, Crabgrass, Large” value [1, 20] was 20 and the “Plant response rating, Crabgrass, Large” value [1, 21] was 50. The “Crabgrass, Large plant response rating” value [1, 22] was 90, the “Plant response rating, Galium” value [2, 19] was 60 and the “Plant response rating, Galium” value [2, 20] was 85. For the same molecule, the “Plant response rating, Galium” value [2, 21] was 100, the “Galium plant response rating” value [2, 22] was 100 and the “Plant response rating, Lambsquarters” value [3, 19] was 65. The “Plant response rating, Lambsquarters” value [3, 20] was 98, the “Plant response rating, Lambsquarters” value [3, 21] was 90 and the “Lambsquarters plant response rating” value [3, 22] was 95. The “Plant response rating, Blackgrass” value [4, 19] was 0, the “Plant response rating, Blackgrass” value [4, 20] was 5 and the “Plant response rating, Blackgrass” value [4, 21] was 30. The “Blackgrass plant response rating” value [4, 22] was 35, the “Plant response rating, Velvetleaf” value [5, 19] was 70 and the “Plant response rating, Velvetleaf” value [5, 20] was 85. The “Plant response rating, Velvetleaf” value [5, 21] was 100, the “Velvetleaf plant response rating” value [5, 22] was 100 and the “Plant response rating, Oilseed Rape” value [6, 19] was 85. For the same molecule, the “Plant response rating, Oilseed Rape” value [6, 20] was 80, the “Plant response rating, Oilseed Rape” value [6, 21] was 95 and the “Oilseed Rape plant response rating” value [6, 22] was 100. The “Plant response rating, Corn” value [7, 19] was 0, the “Plant response rating, Corn” value [7, 20] was 0 and the “Plant response rating, Corn” value [7, 21] was 60. The “Corn plant response rating” value [7, 22] was 25, the “Plant response rating, Wheat” value [8, 19] was 0 and the “Plant response rating, Wheat” value [8, 20] was 0. For the same molecule, the “Plant response rating, Wheat” value [8, 21] was 5, the “Wheat plant response rating” value [8, 22] was 15 and the “Plant response rating, Ryegrass, Italian” value [9, 19] was 5. The “Plant response rating, Ryegrass, Italian” value [9, 20] was 30, the “Plant response rating, Ryegrass, Italian” value [9, 21] was 70 and the “Ryegrass, Italian plant response rating” value [9, 22] was 90. For the same molecule, the “Plant response rating, Barnyardgrass” value [10, 19] was 5, the “Plant response rating, Barnyardgrass” value [10, 20] was 30 and the “Plant response rating, Barnyardgrass” value [10, 21] was 70. The “Barnyardgrass plant response rating” value [10, 22] was 95, the “Plant response rating, Ragweed” value [11, 19] was 85 and the “Plant response rating, Ragweed” value [11, 20] was 90. For the same molecule, the “Plant response rating, Ragweed” value [11, 21] was 95, the “Ragweed plant response rating” value [11, 22] was 100 and the “Plant response rating, Pigweed” value [12, 19] was 95. The “Plant response rating, Pigweed” value [12, 20] was 100, the “Plant response rating, Pigweed” value [12, 21] was 100 and the “Pigweed plant response rating” value [12, 22] was 100. For the same molecule, the “Plant response rating, Waterhemp” value [13, 19] was 55, the “Plant response rating, Waterhemp” value [13, 20] was 70 and the “Plant response rating, Waterhemp” value [13, 21] was 80. The “Waterhemp plant response rating” value [13, 22] was 100, the “Plant response rating, Morningglory” value [14, 19] was 55 and the “Plant response rating, Morningglory” value [14, 20] was 80. The “Plant response rating, Morningglory” value [14, 21] was 85 and the “Morningglory plant response rating” value [14, 22] was 98.
